Test [1] deals with T1, Gag-Pol polyprotein (Human immunodeficiency virus type 1 group M subtype B (isolate HXB2), UniProt P04585). Nature of the test: ST Inhibitory Assay. The method, then:
Insertion of two newly processed 3'-viral DNA ends into the host-cell chromosome. All biological assays were performed essentially as previously described [Dayam et al., J. Med. Chem., 51:1136-1144].

In test [2] the target is T1, Gag-Pol polyprotein. Nature of the test: 3'-P Inhibitory Assay. As for the experimental part: Cleavage of a dinucleotide from each 3'-end of viral cDNA. All biological assays were performed essentially as previously described [Dayam et al., J. Med. Chem., 51:1136-1144].

In the case of `O=C(/C=C/c1ccc(O)c(O)c1)Nc1ccc(S(=O)(=O)Nc2ccc(F)c(F)c2)cc1` [(E)-3-(3,4-Dihydroxyphenyl)-N-(4-(3,4-Difluorophenylsulfamoyl)phenyl)acrylamide (11b)], the IC50 was determined as 6 µM on Gag-Pol polyprotein [1] and 11 µM at Gag-Pol polyprotein [2].
The corresponding values for `O=C(/C=C/c1ccc(O)c(O)c1)Nc1ccc(S(=O)(=O)Nc2ccc(F)cc2)cc1` [(E)-3-(3,4-Dihydroxyphenyl)-N-(4-(4-Fluorophenylsulfamoyl)phenyl)acrylamide (11a)] are 5 µM and 8 µM.
The matching figures for `CC(=O)Oc1cc(C(=O)Nc2ccc(S(=O)(=O)Nc3ccccc3C)cc2)cc(OC(C)=O)c1OC(C)=O` [N-(4-(2-Methylphenylsulfamoyl)phenyl)-3,4,5-triacetoxybenzamide (8s)]: 1.6 µM and more than 10 µM.
In the case of `O=C(Nc1ccc(S(=O)(=O)Nc2ccccc2)cc1)c1ccc(O)c(O)c1` [N-(4-phenylsulfamoylphenyl)3,4-dihydroxybenzamidebenzamide (11w)], the concentration for half-maximal inhibition (IC50) against Gag-Pol polyprotein [1] is 50 µM; against Gag-Pol polyprotein [2], 100 µM.
The matching figures for `O=C(Nc1ccc(S(=O)(=O)Nc2ccc(Cl)cc2)cc1)c1cc(O)c(O)c(O)c1` [N-(4-(4-Chlorophenylsulfamoyl)phenyl)galloylamide (9n)]: 2 µM and 6 µM.
Consider `O=C(Nc1ccc(S(=O)(=O)Nc2ccccc2)cc1)c1cc(O)c(O)c(O)c1` [N-(4-Phenylsulfamoylphenyl)galloylamide (9m)], for which the IC50 came to 1.5 µM on Gag-Pol polyprotein [1] and 7 µM against Gag-Pol polyprotein [2].
The corresponding values for `COc1ccc(NS(=O)(=O)c2ccc(NC(=O)c3cc(O)c(O)c(O)c3)cc2)cc1` [N-(4-(4-Methoxylphenylsulfamoyl)phenyl)galloylamide (9q)] are 4.5 µM and 5 µM.
The matching figures for `CC(=O)Oc1ccc(/C=C/C(=O)Nc2ccc(S(=O)(=O)Nc3ccc(F)c(F)c3)cc2)cc1OC(C)=O` [(E)-3-(3,4-Diacetoxyphenyl)-N-(4-(3,4-Difluorophenylsulfamoyl)phenyl)acrylamide (10b)]: 11 µM and 60 µM.
The matching figures for `O=C(/C=C/c1ccc(O)c(O)c1)Nc1ccc(S(=O)(=O)NCc2ccc(F)cc2)cc1` [(E)-3-(3,4-Dihydroxyphenyl)-N-(4-(4-Fluorobenzylsulfamoyl)phenyl)acrylamide (11d)]: 9 µM and 24 µM.
As to `O=C(/C=C/c1ccc(O)c(O)c1)Nc1ccc(S(=O)(=O)Nc2ccccc2Br)cc1` [(E)-3-(3,4-Dihydroxyphenyl)-N-(4-(2-Bromophenylsulfamoyl)phenyl)acrylamide (11g)], the results for the IC50 against Gag-Pol polyprotein [1] and against Gag-Pol polyprotein [2] were 9 µM and 11 µM, respectively.
The corresponding values for `O=C(/C=C/c1ccc(O)c(O)c1)Nc1ccc(S(=O)(=O)Nc2ccc(Br)cc2)cc1` [(E)-3-(3,4-Dihydroxyphenyl)-N-(4-(4-Bromophenylsulfamoyl)phenyl)acrylamide (11e)] are 8 µM and 35 µM.
The corresponding values for `O=C(Nc1ccc(S(=O)(=O)NCc2ccc(Cl)cc2)cc1)c1cc(O)c(O)c(O)c1` [N-(4-(4-Chlorobenzylsulfamoyl)phenyl)galloylamide (9o)] are 2 µM and 5 µM.
For the molecule `CCOc1ccc(NS(=O)(=O)c2ccc(NC(=O)c3cc(O)c(O)c(O)c3)cc2)cc1` [N-(4-(4-Ethoxylphenylsulfamoyl)phenyl)galloylamide (9j)], the concentration for half-maximal inhibition (IC50) is 1.3 µM against Gag-Pol polyprotein [1] and 6 µM against Gag-Pol polyprotein [2].
The corresponding values for `CC(=O)Oc1cc(C(=O)Nc2ccc(S(=O)(=O)Nc3ccccc3Br)cc2)cc(OC(C)=O)c1OC(C)=O` [N-(4-(2-Bromophenylsulfamoyl)phenyl)-3,4,5-triacetoxybenzamide (8g)] are 3 µM and 12 µM.
The corresponding values for `O=C(/C=C/c1ccc(O)c(O)c1)Nc1ccc(S(=O)(=O)Nc2cccc(Br)c2)cc1` [(E)-3-(3,4-Dihydroxyphenyl)-N-(4-(3-Bromophenylsulfamoyl)phenyl)acrylamide (11f)] are 22 µM and 49 µM.
The corresponding values for `O=C(Nc1ccc(S(=O)(=O)Nc2ccc([N+](=O)[O-])cc2)cc1)c1cc(O)c(O)c(O)c1` [N-(4-(4-Nitrophenylsulfamoyl)phenyl)galloylamide (9r)] are 3 µM and 4 µM.
For `O=C(Nc1ccc(S(=O)(=O)NCc2ccc(F)cc2)cc1)c1cc(O)c(O)c(O)c1` [N-(4-(4-Fluorobenzylsulfamoyl)phenyl)galloylamide (9d)], the IC50 against Gag-Pol polyprotein [1] stood at 2 µM; on Gag-Pol polyprotein [2] it was 7 µM.
The matching figures for `O=C(/C=C/c1ccc(O)c(O)c1)Nc1ccc(S(=O)(=O)NCCc2ccc(F)cc2)cc1` [(E)-3-(3,4-Dihydroxyphenyl)-N-(4-(4-Fluorophenethylsulfamoyl)phenyl)acrylamide (11t)]: 10 µM and 14 µM.
The corresponding values for `O=C(Nc1ccc(S(=O)(=O)Nc2ccc(Cl)c(Cl)c2)cc1)c1cc(O)c(O)c(O)c1` [N-(4-(3,4-Dichlorophenylsulfamoyl)phenyl)galloylamide (9h)] are 1.7 µM and 5 µM.
The matching figures for `CC(=O)Oc1ccc(/C=C/C(=O)Nc2ccc(S(=O)(=O)Nc3ccc(Cl)c(Cl)c3)cc2)cc1OC(C)=O` [(E)-3-(3,4-Diacetoxyphenyl)-N-(4-(3,4-Dichlorophenylsulfamoyl)phenyl)acrylamide (10h)]: 7 µM and 75 µM.
Take `CCCCc1ccc(NS(=O)(=O)c2ccc(NC(=O)/C=C/c3ccc(O)c(O)c3)cc2)cc1` [(E)-3-(3,4-Dihydroxyphenyl)-N-(4-(4-Butylphenylsulfamoyl)phenyl)acrylamide (11i)]: the half-maximal inhibitory concentration (IC50) at Gag-Pol polyprotein [1] is 7 µM; at Gag-Pol polyprotein [2], 25 µM.
The corresponding values for `CC(=O)Oc1ccc(/C=C/C(=O)Nc2ccc(S(=O)(=O)Nc3cc(C)cc(C)c3)cc2)cc1OC(C)=O` [(E)-3-(3,4-Diacetoxyphenyl)-N-(4-(3,5-Dimethylphenylsulfamoyl)phenyl)acrylamide (10k)] are 16 µM and 80 µM.
As to `CCOc1ccc(NS(=O)(=O)c2ccc(NC(=O)/C=C/c3ccc(O)c(O)c3)cc2)cc1` [(E)-3-(3,4-Dihydroxyphenyl)-N-(4-(4-Ethoxylphenylsulfamoyl)phenyl)acrylamide (11j)], the figures for the IC50 against Gag-Pol polyprotein [1] and against Gag-Pol polyprotein [2] were 9 µM and 35 µM, respectively.
The matching figures for `Cc1ccc(NS(=O)(=O)c2ccc(NC(=O)c3cc(O)c(O)c(O)c3)cc2)cc1C` [N-(4-(3,4-Dimethylphenylsulfamoyl)phenyl)galloylamide (9p)]: 8 µM and 8 µM.
The matching figures for `O=C(/C=C/c1ccc(O)c(O)c1)Nc1ccc(S(=O)(=O)Nc2ccc(F)c(Cl)c2)cc1` [(E)-3-(3,4-Dihydroxyphenyl)-N-(4-(3-chloro-4-fluorophenylsulfamoyl)phenyl)acrylamide (11v)]: 4 µM and 8 µM.
The matching figures for `CCCCc1ccc(NS(=O)(=O)c2ccc(NC(=O)c3cc(O)c(O)c(O)c3)cc2)cc1` [N-(4-(4-Butylphenylsulfamoyl)phenyl)galloylamide (9i)]: 2.5 µM and 3 µM.
On to `Cc1cc(C)cc(NS(=O)(=O)c2ccc(NC(=O)/C=C/c3ccc(O)c(O)c3)cc2)c1` [(E)-3-(3,4-Dihydroxyphenyl)-N-(4-(3,5-Dimethylphenylsulfamoyl)phenyl)acrylamide (11k)], for which the IC50 turned out to be 4 µM at Gag-Pol polyprotein [1] and 5 µM against Gag-Pol polyprotein [2].
